# Measurements published in patent US20050191735A1, “Oxidoreductase” (priority 2003, published 2005).
# Assays:
# [1] = tested on: recombinant Lactobacillus reuteri oxidoreductase; assay: Substrate spectrum in standard measurement mixture; assay type: biochemical; details: reduction with NADPH; activity with ethyl 2-oxo-4-phenylbutyrate set to 100%
# [2] = tested on: L. reuteri oxidoreductase; assay: Preparative conversion, coenzyme regeneration with Thermoanerobium brockii ADH; assay type: biochemical, Lactobacillus reuteri; details: 4 ml substrate, 1 000 units oxidoreductase, room temperature, after 24 h
# Protocol: For a preparative approach, a mixture of 4 ml of potassium phosphate buffer 100 mM, pH=7.0, 2 ml of isopropanol, 4 ml of ethyl 2-oxo-4-phenylbutyrate, 0.064 mg of NADP, 1 000 units of L. reuteri oxidoreductase and 10 mg of Thermoanerobium brockii ADH (Fluka, approximately 100 U, based on oxidation of 2-propanol) was incubated at room temperature with constant mixing for 24 h. […] 97% of the product was the corresponding S-alcohol.
# [3] = tested on: L. reuteri oxidoreductase; assay: Preparative conversion, coenzyme regeneration with KRED 1004; assay type: biochemical, Lactobacillus reuteri; details: 4 ml substrate, 1 000 units oxidoreductase, 1 mg KRED 1004, room temperature, after 2 h
# Protocol: For a preparative approach, a mixture of 4 ml of potassium phosphate buffer 100 mM, pH=7.0, 2 ml of isopropanol, 4 ml of ethyl 2-oxo-4-phenylbutyrate, 0.064 mg of NADP, 1 000 units of L. reuteri oxidoreductase and 1 mg of KRED 1004 (Biocatalytics Inc, Pasadena) was incubated at room temperature with constant mixing for 2 h. […] 98% of the product was the corresponding S-alcohol.
smiles,measurement,setting,value
CCOC(=O)C(=O)CCc1ccccc1 [Ethyl 2-oxo-4-phenyl-butyrate],Relative activity %,[1],100%
same,conversion to ethyl 2-hydroxy-4-phenylbutyrate,[2],completely converted
same,conversion to ethyl 2-hydroxy-4-phenylbutyrate,[3],completely converted
